According to patent US5137720A, “Antiviral combination, and method of treatment” (Ciba-Geigy Corporation, priority 1988, dated 1992):

Key:
rat alveolar macrophages = test: In vitro alveolar macrophage-mediated cytotoxicity against MADB-200 tumor cells (crystal violet); type: cell-based; conditions: interferon 0
Method: Macrophage-mediated cytotoxicity was assessed against syngeneic MADB-200 adenocarcinoma target cells available from the American Type Culture Collection, ATCC. These cells were maintained as monolayer cultures in MEM supplemented with 10% fetal calf serum. Cultures were maintained at 37° C. in a humidified atmosphere containing 5% CO2. Cultures were routinely tested for the presence of mycoplasma.
Alveolar macrophages (AM) were collected by transtracheal lavage (Brownbill and Schumann, Cancer Immunol. Immunother. 20, 11-17, 1985). The cells recovered from lavage fluids were centrifuged at 400× g for 10 minutes, suspended in serum-free medium, and plated into 96-well Microtest II plastic tissue culture dishes at 5×10^4 cells per well. After incubation for 60 minutes, cells were washed with HBSS to remove non-adherent […].
Purified cultures of rat alveolar macrophages were incubated at 37° C. for 1 hour with 0.2 ml of control medium, recombinant alpha B1 D2 B3 B4, MTP-PE, or a combination of alpha B1 D2 B3 B4 and MTP-PE. To these treated cells, 5×10^3 MADB-200 tumor cells were added and allowed to incubate for 72 hours at 37° C. Thus, 50,000 macrophages were incubated with 5000 tumor cells.
A colorimetric assay using crystal violet staining of remaining MADB-200 tumor cells was used to determine macrophage cytotoxicity (Brownbill and Schumann, Cancer Immunol. Immunother. 20, 11-17, 1985). Briefly, following incubation, wells are washed with HBSS and the remaining cells fixed with formalin and stained with crystal violet. Each well is thoroughly washed after staining, the cells decolorized with alcohol, and the extract read with a colorimeter. The % cytotoxic activity of alveolar macrophages was calculated as follows: [formula]

[1] = Body distribution of liposomes following i.v. administration; type: in vivo; conditions: rodents
Method: Alpha interferon is diluted in calcium and magnesium free PBS, and 2.5 ml is used to reconstitute 250 mg lyophilized synthetic lipids (POPC/OOPS, 7:3 molar ratio) containing 1 mg MTP-PE. This mixture is vigorously shaken in a Vortex mixer for 2 minutes and allowed to stand for 30 minutes prior to revortexing and the addition of another 2.5 ml of PBS. It is found (using I^125 labelled alpha interferon) that approximately 20% of the interferon is bound to liposomes following this reconstitution procedure. Liposomes prepared in this manner have the same physical properties as liposomes containing only MTP-PE and appear to follow the same body distribution profile following i.v. administration in rodents. Approximately 2-3 times more MTP-PE and interferon reach the lung when both substances are incorporated into liposomes as compared to unencapsulated forms.

HSV-2/MS = test: Herpes genitalis in the guinea pig, local lesion scores; type: in vivo, guinea pigs of the Pirbright strain
Method: Female albino guinea-pigs of the Pirbright strain, weighing 200-300 g, are infected intravaginally after gentle opening of the introitus vaginae with a forceps. Thereafter, pieces of fibrin foam (SEVAC, Prague) measuring 5×5×4 mm are impregnated with 0.05 ml containing about 10^4 PFU of HSV 2/MS from cultures in HEL. These pieces are introduced intravaginally (1-2). The animals are kept in groups of 4-5 in type 4 Macrolon cages.
Three days after infection, by which time the local symptomatology scores (see below) range from 3 to 6 in about 90% of the animals, these animals are divided at random into groups of 10-15 per preparation and untreated control. Treatment is started 72 hours after infection and administered twice daily for 5 days. One tenth of a milliliter is applied intravaginally and 0.1 ml extravaginally.
From the 3rd day onwards, the local symptoms are evaluated thrice weekly. The criteria applied in assessing the therapeutic effects of treatment are the rate and the degree of regression of overt signs of infection in the individual animals. The degree and severity of local symptoms are scored according to the following points system:
The number indicated in the following Table of female albino guinea pigs of the Pirbright strain (150-180 g body weight) are infected intravaginally with ~10^4 PFU (plaque-forming units) of herpes simplex type 2 virus, cultivated in HEL (human embryonal lungs) cells, as described in B. Lukas et al., Arch. ges. Virusforsch. 44, 153-155 (1974).
Beginning 72 h after infection, animals are treated intravaginally twice a day for 5 days with 0.2 ml of a gel containing one of the following: i) alpha interferon B1 D2 B3 B4 at 1.5×10^6 units/kg; ii) Liposome-encapsulated MTP-PE at 1 mg/kg and iii) a mixture of both. Guinea pigs receiving placebo treatment are given a gel without active ingredients.

SMILES: CCCCCCCCCCCCCCCC(=O)OC[C@H](COP(=O)([O-])OCCNC(=O)[C@H](C)NC(=O)CC[C@@H](NC(=O)[C@H](C)NC(=O)[C@@H](C)O[C@H]1[C@H](O)[C@@H](CO)O[C@@H](O)[C@@H]1NC(C)=O)C(N)=O)OC(=O)CCCCCCCCCCCCCCC.[Na+] [MTP-PE, N-acetyl-muramyl-L-alanyl-D-isoglutaminyl-L-alanine-2-(1,2-di-palmitoyl-sn-glycero-3-hydroxyphosphoryloxy)-ethylamide-sodium salt]
- % Cytotoxicity (rat alveolar macrophages; MTP-PE alone 0.01 μg/ml): 0%
- % Cytotoxicity (rat alveolar macrophages; MTP-PE alone 0.03 μg/ml): 7%
- % Cytotoxicity (rat alveolar macrophages; MTP-PE alone 0.1 μg/ml): 10%
- amount reaching the lung, both substances incorporated into liposomes as compared to unencapsulated forms [1]: 2-3 times
- Mean Lesion Score ± Standard Error (HSV-2/MS; day 3 after infection (start of treatment), gel intravaginally twice a day for 5 days, interferon 1.5×10^6 units/kg, liposome-encapsulated MTP-PE 1 mg/kg): 1.9 ± 0.23
- Mean Lesion Score ± Standard Error (HSV-2/MS; day 5 after infection, same treatment): 2.8 ± 1.15
- Mean Lesion Score ± Standard Error (HSV-2/MS; day 7 after infection, same treatment): 4.3 ± 1.32
- Mean Lesion Score ± Standard Error (HSV-2/MS; day 10 after infection, same treatment): 4.0 ± 1.93
- Mean Lesion Score ± Standard Error (HSV-2/MS; day 12 after infection, same treatment): 4.3 ± 1.42
- Mean Lesion Score ± Standard Error (HSV-2/MS; day 14 after infection, same treatment): 4.3 ± 1.42
- Mean Lesion Score ± Standard Error (HSV-2/MS; day 17 after infection, same treatment): 3.0 ± 1.60
